Results taken from patent publication US5861424A, “Composition and method for treating cancer” (priority 1995, dated 1999).
Like-named read-outs stand apart in the source and are kept apart here.

Experiments:
[1] = tested on: normal monkey kidney epithelial cell line CV-1; experiment: Colony formation assay, normal monkey kidney epithelial cells CV-1; details: Primates, Epithelial cell;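 further: colonies visualized by crystal violet staining, incubation at 37 °C, IC50 relative to untreated wells given culture medium alone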
[2] = tested on: human colon carcinoma cell line CX-1; experiment: Colony formation assay, human colon carcinoma CX-1; format: cell-based; details: for IC50: Homo sapiens, Colon carcinoma cell; for Selectivity (ratio of IC50 for CV-1 and IC50 for CX-1): CV-1/CX-1
[3] = tested on: human pancreatic carcinoma CRL 1420 cell line; experiment: Colony formation assay, human pancreatic carcinoma CRL 1420; format: cell-based; details: Table VII; for IC50: Homo sapiens, 24 h, 24 h treatment; for Selectivity (CV-1 IC50 / CRL-1420 IC50): CV-1/CRL-1420
Text: (§1) The control received culture media only.
The Selectivity values, CRL 1420 values and CV-1 values for compounds of the General Formulas (1) to (6) used in the present invention are shown in Table VII below.

[4] = tested on: human bladder carcinoma EJ cell line; experiment: Colony formation assay, human bladder carcinoma EJ; format: cell-based; details: for IC50: Homo sapiens, EJ, 24 h, read-out: EJ (IC50); for Selectivity (CV-1 IC50 / EJ IC50): CV-1/EJ
Text: as §1

[5] = tested on: human melanoma LOX cell line; experiment: Colony formation assay, human melanoma LOX; format: cell-based; details: for IC50: Homo sapiens, LOX, 24 h, read-out: LOX (IC50); for Selectivity (CV-1 IC50 / LOX IC50): CV-1/LOX
Text: as §1

[6] = read-out: CV-1 (IC50), Table III, 24 h treatment, colony count after 7 to 10 days
[7] = read-out: CV-1 (IC50), Table VII
[8] = Table III, 24 h treatment, colony count after 7 to 10 days, read-out: CX-1 (IC50)
[9] = read-out: CV-1 (IC50), Table IV
[10] = read-out: CX-1 (IC50), Table III, 24 h treatment, colony count after 7 to 10 days

Compound | IC50 [1, 6] | IC50 [1, 7] | IC50 [2, 8] | Selectivity (ratio of IC50 for CV-1 and IC50 for CX-1) ([2]; Table III) | IC50 [3] | IC50 [1, 9] | IC50 ([1]; read-out: CV-1 (IC50), Table V) | IC50 ([4]; Table IV, 24 h treatment) | Selectivity (CV-1 IC50 / EJ IC50) ([4]; Table IV) | IC50 [5] | Selectivity (CV-1 IC50 / LOX IC50) ([5]; Table V) | IC50 [2, 10] | Selectivity (CV-1 IC50 / CRL-1420 IC50) [3] | IC50 ([5]; Table V, 24 h treatment) | IC50 ([1]; read-out: CV-1 (IC50)) | IC50 [4] | CX-1 (IC50) ([2]; Table III, 24 h treatment, colony count after 7 to 10 days)
CCN1C(=CC=c2sc(=Cc3ccc4ccccc4[n+]3CC)n(CC)c2=O)Sc2ccc3ccccc3c21 [Compound 40] | 5.14 µg/mL | 2 µg/mL | 0.02 µg/mL | 257 | 0.05 µg/mL |  |  |  |  |  |  |  |  |  |  |  | 
CCN1C(C)=CSC1=CC=c1sc(=Cc2sc3c4ccccc4ccc3[n+]2CC)n(CC)c1=O [Compound 97] | 2 µg/mL |  | 0.01 µg/mL | 200 |  | 2 µg/mL | 2 µg/mL | 0.013 µg/mL | 154 | 0.015 µg/mL | 133 |  |  |  |  |  | 
CCN1CCSC1=CC=c1sc(=Cc2sc3ccc(Cl)cc3[n+]2CC)n(CC)c1=O [Compound 123] | 20 µg/mL | 20 µg/mL |  | 200 | 0.13 µg/mL | 20 µg/mL |  | 0.13 µg/mL | 154 |  |  | 0.1 µg/mL | 154 |  |  |  | 
CCN1CCSC1=CC=c1sc(=Cc2sc3ccc(C)cc3[n+]2CC)n(CC)c1=O [Compound 124] | 5 µg/mL | 5 µg/mL |  | 167 | 0.04 µg/mL | 5 µg/mL | 5 µg/mL | 0.05 µg/mL | 100 |  | 125 | 0.03 µg/mL | 125 | 0.04 µg/mL |  |  | 
CCn1c(=Cc2oc3c4ccccc4ccc3[n+]2CC)sc(=CC=C2N(C)c3ccccc3C2(C)C)c1=O [Compound 208] | 6 µg/mL |  | 0.01 µg/mL | 600 |  |  | 6 µg/mL |  |  |  | 154 |  |  | 0.039 µg/mL |  |  | 
CCn1c(=Cc2sc3ccc(Cl)cc3[n+]2CC)sc(=CC=C2N(C)c3ccccc3C2(C)C)c1=O [Compound 214] |  | 8 µg/mL |  | 267 | 0.04 µg/mL | 8 µg/mL | 8 µg/mL | 0.04 µg/mL | 200 |  | 200 | 0.03 µg/mL | 200 | 0.04 µg/mL |  |  | 
CCN1C(=CC=c2sc(=Cc3sc4c5ccccc5ccc4[n+]3CC)n(CC)c2=O)N(CC)c2cc(Cl)ccc21 [Compound 235] | > 20 µg/mL |  | 0.05 µg/mL | > 400 |  |  |  |  | 500 |  |  |  |  |  | 10 µg/mL | 0.02 µg/mL | 
CCN1C(=CC=c2sc(=Cc3cc[n+](CC)c4ccccc34)n(CC)c2=O)C=Cc2cc(Cl)ccc21 [Compound 395] | 20 µg/mL |  |  | 100 |  |  |  |  |  |  |  |  |  |  |  |  | 0.2 µg/mL
CCN1C=C(C)C=CC1=CC=c1sc(=Cc2sc3cc(C)c(C)cc3[n+]2CC)n(CC)c1=O [Compound 397] | 20 µg/mL |  | 0.05 µg/mL | 400 |  |  |  |  |  |  |  |  |  |  |  |  | 
CCN1C=CC=CC1=CC=c1sc(=Cc2sc3ccc4ccccc4c3[n+]2CC)n(CC)c1=O [Compound 398] | 16 µg/mL |  | 0.04 µg/mL | 400 |  |  |  |  |  |  |  |  |  |  |  |  | 
CCCCC[n+]1c(C=c2sc(=CC=C3SC=C(C)N3CC)c(=O)n2CC)sc2cc(OC)c(OC)cc21 [Compound 399] |  |  |  | 100 |  |  |  |  |  |  |  | 0.1 µg/mL |  |  | 10 µg/mL |  | 
CCN1C(=CC=c2sc(=CC3=[N+](CC)CCS3)n(CC)c2=O)C=Cc2ccccc21 [Compound 400] | > 20 µg/mL |  |  | > 250 |  |  |  |  |  |  |  |  |  |  |  |  | 
